In PubChem BioAssay AID248 (DTP/NCI, 2004):
“And” between values parts separate entries of the source, which are not always exact repeats. Equal entries are not always repeated. Inconclusive results and toxic doses are left out. Rule as the data show it: active = T/C of 150% or more; inactive = T/C below 125%.

System: L1210 leukemia ip in BDF1 mice, survival T/C
Assay: NCI In Vivo Anticancer Drug Screen. Data for tumor model L1210 Leukemia (intraperitoneal) in B6D2F1 (BDF1) mice
Conditions: higher = longer survival
How it was run: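 Tumor was transplanted into mice, which were then dosed with test compound or vehicle alone. Survival was recorded for each group, and the treated figure was expressed relative to the control figure.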

Measured: T/C

C[n+]1ccc(Nc2ccc(NC(=O)c3ccc(Nc4cc[n+](C)c5ccc(N)cc45)cc3)cc2)cc1
active: endpoint: mean survival time, dose: 0.5 mg/kg/injection, schedule: Q01DX009 (sc), vehicle: water 151 % of control | endpoint: mean survival time, dose: 1.0 mg/kg/injection, schedule: Q01DX009 (sc), vehicle: Klucel (hydroxypropylcellulose) (HPC) 159 % of control | endpoint: mean survival time, dose: 2.0 mg/kg/injection, schedule: Q01DX009 (ip), vehicle: water 185 % of control and 204 % of control and 235 % of control | endpoint: mean survival time, dose: 2.0 mg/kg/injection, schedule: Q01DX009 (sc), vehicle: water 175 % of control | endpoint: mean survival time, dose: 4.0 mg/kg/injection, schedule: Q01DX009 (ip), vehicle: water 234 % of control and 267 % of control and 272 % of control | endpoint: mean survival time, dose: 4.0 mg/kg/injection, schedule: Q01DX009 (sc), vehicle: Klucel (hydroxypropylcellulose) (HPC) 200 % of control | endpoint: mean survival time, dose: 4.0 mg/kg/injection, schedule: Q01DX009 (sc), vehicle: water 205 % of control and 224 % of control | endpoint: mean survival time, dose: 8.0 mg/kg/injection, schedule: Q01DX009 (ip), vehicle: Klucel (hydroxypropylcellulose) (HPC) 215 % of control | endpoint: mean survival time, dose: 8.0 mg/kg/injection, schedule: Q01DX009 (ip), vehicle: water 175 % of control and 211 % of control and 252 % of control | endpoint: mean survival time, dose: 8.0 mg/kg/injection, schedule: Q01DX009 (sc), vehicle: water 190 % of control and 222 % of control | endpoint: mean survival time, dose: 12.5 mg/kg/injection, schedule: Q04DX003 (ip), vehicle: saline with Tween-80 247 % of control | endpoint: mean survival time, dose: 12.5 mg/kg/injection, schedule: Q04DX003 (ip), vehicle: saline 257 % of control | endpoint: mean survival time, dose: 16.0 mg/kg/injection, schedule: Q01DX009 (sc), vehicle: Klucel (hydroxypropylcellulose) (HPC) 176 % of control | endpoint: mean survival time, dose: 16.0 mg/kg/injection, schedule: Q01DX009 (sc), vehicle: water 155 % of control and 171 % of control | endpoint: mean survival time, dose: 25.0 mg/kg/injection, schedule: Q04DX003 (ip), vehicle: saline with Tween-80 269 % of control | endpoint: mean survival time, dose: 50.0 mg/kg/injection, schedule: Q04DX003 (ip), vehicle: saline with Tween-80 248 % of control | endpoint: mean survival time, dose: 50.0 mg/kg/injection, schedule: Q04DX003 (ip), vehicle: saline 253 % of control | endpoint: mean survival time, dose: 75.0 mg/kg/injection, schedule: Q04DX003 (ip), vehicle: saline 227 % of control | endpoint: median survival time, dose: 0.5 mg/kg/injection, schedule: Q03HX024 (ip), vehicle: water 150 % of control | endpoint: median survival time, dose: 1.0 mg/kg/injection, schedule: Q03HX016 (ip), vehicle: water 169 % of control | endpoint: median survival time, dose: 1.0 mg/kg/injection, schedule: Q03HX024 (ip), vehicle: water 169 % of control and 186 % of control | endpoint: median survival time, dose: 2.0 mg/kg/injection, schedule: Q01DX005 (ip), vehicle: water 179 % of control | endpoint: median survival time, dose: 2.0 mg/kg/injection, schedule: Q01DX009 (ip), vehicle: water 177 % of control and 224 % of control | endpoint: median survival time, dose: 2.0 mg/kg/injection, schedule: Q01DX009 (sc), vehicle: water 150 % of control | endpoint: median survival time, dose: 2.0 mg/kg/injection, schedule: Q03HX008 (ip), vehicle: water 169 % of control | endpoint: median survival time, dose: 2.0 mg/kg/injection, schedule: Q03HX016 (ip), vehicle: water 158 % of control and 213 % of control | endpoint: median survival time, dose: 2.0 mg/kg/injection, schedule: Q03HX024 (ip), vehicle: water 197 % of control | endpoint: median survival time, dose: 4.0 mg/kg/injection, schedule: Q01DX005 (ip), vehicle: water 195 % of control | endpoint: median survival time, dose: 4.0 mg/kg/injection, schedule: Q01DX009 (ip), vehicle: water 231 % of control | endpoint: median survival time, dose: 4.0 mg/kg/injection, schedule: Q01DX009 (sc), vehicle: water 183 % of control and 222 % of control | endpoint: median survival time, dose: 4.0 mg/kg/injection, schedule: Q03HX008 (ip), vehicle: water 202 % of control | endpoint: median survival time, dose: 4.0 mg/kg/injection, schedule: Q03HX016 (ip), vehicle: water 229 % of control and 261 % of control | endpoint: median survival time, dose: 4.0 mg/kg/injection, schedule: Q03HX024 (ip), vehicle: water 201 % of control and 247 % of control | endpoint: median survival time, dose: 8.0 mg/kg/injection, schedule: Q01DX005 (ip), vehicle: water 211 % of control | endpoint: median survival time, dose: 8.0 mg/kg/injection, schedule: Q01DX009 (sc), vehicle: water 178 % of control | endpoint: median survival time, dose: 8.0 mg/kg/injection, schedule: Q04DX003 (ip), vehicle: water 164 % of control | endpoint: median survival time, dose: 8.0 mg/kg/injection, schedule: Q08DX002 (ip), vehicle: water 153 % of control | endpoint: median survival time, dose: 32.0 mg/kg/injection, schedule: Q01DX001 (sc), vehicle: water 165 % of control | endpoint: median survival time, dose: 64.0 mg/kg/injection, schedule: Q01DX001 (sc), vehicle: water 192 % of control and 267 % of control
inactive: endpoint: mean survival time, dose: 0.5 mg/kg/injection, schedule: Q01DX009 (ip), vehicle: water 118 % of control | endpoint: mean survival time, dose: 1.0 mg/kg/injection, schedule: Q01DX009 (ip), vehicle: Klucel (hydroxypropylcellulose) (HPC) 112 % of control | endpoint: mean survival time, dose: 1.0 mg/kg/injection, schedule: Q01DX009 (sc), vehicle: water 110 % of control and 113 % of control | endpoint: mean survival time, dose: 2.0 mg/kg/injection, schedule: Q01DX009 (ip), vehicle: Klucel (hydroxypropylcellulose) (HPC) 107 % of control | endpoint: mean survival time, dose: 4.0 mg/kg/injection, schedule: Q01DX009 (ip), vehicle: Klucel (hydroxypropylcellulose) (HPC) 118 % of control | endpoint: mean survival time, dose: 10.0 mg/kg/injection, schedule: Q01DX009 (oral), vehicle: Klucel (hydroxypropylcellulose) (HPC) 104 % of control | endpoint: mean survival time, dose: 20.0 mg/kg/injection, schedule: Q01DX009 (oral), vehicle: Klucel (hydroxypropylcellulose) (HPC) 105 % of control | endpoint: mean survival time, dose: 40.0 mg/kg/injection, schedule: Q01DX009 (oral), vehicle: Klucel (hydroxypropylcellulose) (HPC) 100 % of control | endpoint: mean survival time, dose: 80.0 mg/kg/injection, schedule: Q01DX009 (oral), vehicle: Klucel (hydroxypropylcellulose) (HPC) 105 % of control | endpoint: mean survival time, dose: 160.0 mg/kg/injection, schedule: Q01DX009 (oral), vehicle: Klucel (hydroxypropylcellulose) (HPC) 101 % of control | endpoint: median survival time, dose: 0.25 mg/kg/injection, schedule: Q03HX008 (ip), vehicle: water 103 % of control and 121 % of control | endpoint: median survival time, dose: 0.25 mg/kg/injection, schedule: Q03HX016 (ip), vehicle: water 107 % of control and 116 % of control | endpoint: median survival time, dose: 0.25 mg/kg/injection, schedule: Q03HX024 (ip), vehicle: water 112 % of control and 116 % of control | endpoint: median survival time, dose: 0.5 mg/kg/injection, schedule: Q01DX005 (ip), vehicle: water 102 % of control and 124 % of control | endpoint: median survival time, dose: 0.5 mg/kg/injection, schedule: Q01DX009 (ip), vehicle: water 112 % of control and 122 % of control | endpoint: median survival time, dose: 0.5 mg/kg/injection, schedule: Q01DX009 (sc), vehicle: water 96 % of control and 100 % of control | endpoint: median survival time, dose: 0.5 mg/kg/injection, schedule: Q03HX008 (ip), vehicle: water 112 % of control | endpoint: median survival time, dose: 0.5 mg/kg/injection, schedule: Q03HX016 (ip), vehicle: water 119 % of control | endpoint: median survival time, dose: 1.0 mg/kg/injection, schedule: Q01DX005 (ip), vehicle: water 117 % of control | endpoint: median survival time, dose: 1.0 mg/kg/injection, schedule: Q01DX009 (sc), vehicle: water 101 % of control and 111 % of control | endpoint: median survival time, dose: 2.0 mg/kg/injection, schedule: Q01DX001 (sc), vehicle: water 97 % of control and 98 % of control | endpoint: median survival time, dose: 2.0 mg/kg/injection, schedule: Q04DX003 (ip), vehicle: water 114 % of control and 121 % of control | endpoint: median survival time, dose: 2.0 mg/kg/injection, schedule: Q08DX002 (ip), vehicle: water 110 % of control and 113 % of control | endpoint: median survival time, dose: 4.0 mg/kg/injection, schedule: Q01DX001 (ip), vehicle: water 110 % of control | endpoint: median survival time, dose: 4.0 mg/kg/injection, schedule: Q01DX001 (sc), vehicle: water 95 % of control and 105 % of control | endpoint: median survival time, dose: 4.0 mg/kg/injection, schedule: Q04DX003 (ip), vehicle: water 124 % of control | endpoint: median survival time, dose: 4.0 mg/kg/injection, schedule: Q08DX002 (ip), vehicle: water 116 % of control and 124 % of control | endpoint: median survival time, dose: 8.0 mg/kg/injection, schedule: Q01DX001 (ip), vehicle: water 121 % of control | endpoint: median survival time, dose: 8.0 mg/kg/injection, schedule: Q01DX001 (sc), vehicle: water 105 % of control and 113 % of control | endpoint: median survival time, dose: 16.0 mg/kg/injection, schedule: Q01DX001 (sc), vehicle: water 105 % of control | endpoint: median survival time, dose: 16.0 mg/kg/injection, schedule: Q01DX009 (sc), vehicle: water 95 % of control

O=C1c2ccccc2-c2oc(=O)c3ccccc3c21
inactive: endpoint: mean survival time, dose: 50.0 mg/kg/injection, schedule: Q01DX001 (ip), vehicle: carboxymethylcellulose (CMC) 96 % of control | endpoint: mean survival time, dose: 100.0 mg/kg/injection, schedule: Q01DX001 (ip), vehicle: carboxymethylcellulose (CMC) 96 % of control | endpoint: mean survival time, dose: 200.0 mg/kg/injection, schedule: Q01DX001 (ip), vehicle: carboxymethylcellulose (CMC) 94 % of control | endpoint: mean survival time, dose: 400.0 mg/kg/injection, schedule: Q01DX001 (ip), vehicle: carboxymethylcellulose (CMC) 96 % of control

Clc1ccc2nsnc2c1Cl
inactive: endpoint: mean survival time, dose: 100.0 mg/kg/injection, schedule: Q04DX003 (ip), vehicle: Klucel (hydroxypropylcellulose) (HPC) 95 % of control | endpoint: mean survival time, dose: 200.0 mg/kg/injection, schedule: Q04DX003 (ip), vehicle: Klucel (hydroxypropylcellulose) (HPC) 98 % of control | endpoint: mean survival time, dose: 400.0 mg/kg/injection, schedule: Q04DX003 (ip), vehicle: Klucel (hydroxypropylcellulose) (HPC) 98 % of control
